Measurements reported in publication PMC12851007 (Angewandte Chemie (International Ed. in English), 2025).
Where a SMILES comes first, the peptide text is derived from it.

Legend:
[1] = Dual-channel assay, CF channel, POPC vesicles; format: biochemical; details: 12.5 µM POPC⸧CX4/LCG-LUVs and 12.5 µM POPC⸧CF-LUVs in 10 mM Hepes, 175 mM glucose, pH 7.5, 25 °C; λexc 525/λem 545 nm; error = SD of fit, n = 1
Description: With the established identical extravesicular conditions in both assays, we further envisaged a simultaneous measurement of both assays within the same solution to enhance the comparability of the measurements. This became possible after optimization of the excitation and emission wavelengths. […] A further optimization was required, because the dye concentrations in the CF assay and the CX4/LCG assay are largely different.^[ [51], [52] ^] Consequently, simultaneous monitoring requires the detection of a low amount of LCG in the presence of a high concentration of the much more brightly fluorescent CF, which challenges the dynamic range of a typical fluorescence spectrometer in a dual‐channel measurement. To reduce the fluorescence read‐out of CF, the excitation wavelength was shifted from the absorption maximum at ca. 490 nm to 525 nm, where CF has a much lower absorbance, and the emission in the CF channel was shifted from its maximum at ca. 515 nm to 545 nm to further reduce the fluorescence of CF. To maintain a high LCG fluorescence, excitation was performed at the absorption maximum at 369 nm. Since CF has a residual absorbance at this excitation wavelength, emission in the LCG channel was monitored at 475 nm instead of 502 nm to eliminate spill‐over of CF fluorescence into the LCG channel. […]
(§1) Time-dep endent fluores cence intensit y traces, I (t), were subsequentl y normalized to fractional intensities, If(t), using equation (1) and the concentration- dependent fractional intensities just before the addition of th e calibration co cktail, I f, w ere then normaliz ed to fr actional membran e activities, Y, using equation (2). The fractional membrane activities, Y, were subsequently plotted against the peptide concentration, c, and anal ysed using the Hill equation (3) to obtain the effective molar concentration, EC 50, and the Hill coefficient, n. For peptides with too low activity to determine Y max ex perimentall y, Y max was fixed at 1.0 during fitting. […]
(§2) Dual-Channel Measurements
(§3) Vesicles w ere prep ared a s described abov e (se e en try (4) in Table S2 and entry (3) in Table S3) and eluted with freshl y prepared 10 mM Hepes, 175mM glucos e, pH 7.5 i n the size exclusion chromatograph y. […] The fluorescence intensity w as simultaneous l y r eco rded in the CF chann el ( λ exc = 525 nm, λ em = 545 nm) and in the LCG channel ( λ exc = 369 nm, λ em = 475 nm) with an ex citation slit width of 5 nm and an emission slit width of 5 n m during addition of 20 µL peptide stock solution of varying concentrations at 60 s and 20 µL of a calibration

[2] = format: binding; details: LCG displacement in 10 mM Hepes, pH 7.0, 25 °C; fluorescence; error = SD of nonlinear fit, n = 1
Procedure: Fluorescence titrations were performed as previously described and the resulting titration curves we re an al yz ed usi ng established pro cedur es . Competitive titrations were eithe r anal yz ed with a fitting function assuming 1:1 host-competitor complexes[3] or with a fitting function involving hi gher complex es with more than on e h ost bound per peptide.[4] In the latter c ase, an identical binding affinity is assumed for all binding sites. […]
Figure S1. a) Fluorescence titration of 0.5 µM LCG ( λex = 369 n m) with varying concentrations of CX4 in 10 mM Hepes, pH 7.0, 25 °C .b) Respective titration curve ( λem = 502 nm) with fitted line . […]
Figure S2. a) Competitive fluorescence titration wit h 0.5 µM LCG, 1 µM CX4 ( λex = 369 nm) and varying concentrations of penetratin in 10 mM Hepes, pH 7.0, 25 °C . b) Respective titration c ur ve (λem = 502 nm) with fitted line .
(also on this page, place not known: analyzed using procedures. were either analyzed host -competitor higher complexes one host case, 700 Intensity Intensity (λex °C. line. 650 0 Intensity 0 Intensity b) curve (λem nm) with line.)

[3] = Dual-channel assay, CF channel, POPC/POPS vesicles; format: biochemical; details: 12.5 µM POPC/POPS(9:1)⸧CX4/LCG-LUVs and 12.5 µM POPC/POPS(9:1)⸧CF-LUVs in 10 mM Hepes, 175 mM glucose, pH 7.5; error = SD of fit, n = 1
Description: (§4) Ultimately, we have also tested the new conditions with vesicles containing the anionic lipid 1‐palmitoyl‐2‐oleoyl‐phosphatidylserine (POPS) with TP10, Pep‐1, and the LRLLRW peptide (Figures S41–S43 and Table S11). The results confirmed that the absolute activity as well as the difference between the CF dye efflux assay and the tandem membrane assay was nearly unaffected by the presence of 10% POPS with the only exception that the membrane‐translocating ability of TP10 was enhanced.
(§5) Assay protocol. An appropriate volume of the liposome stock solutions was diluted to 2 mL with outside buffer in a 10 ×10 mm quartz glass cuvette to afford a phospholipid concentration of 25 µM. The cuvette was placed into a thermostatted fluorimeter sample holder and gentl y stirred at 300 rpm at (25.0± 0.1) °C. Subsequentl y, the time-dependent change in fluorescence intensity (C F: λ exc = 492 nm, λ em = 517 nm) was recorded during addition of 20 µL peptide stock solution of var ying concentrations at 60 s and 20µ L of a calibration cocktail (1. 6% […]
Time-dep endent fluores cence intensit y traces, I (t), were subsequentl y normalized to fractional intensities, If(t), using equation (1) and the concentration- dependent fractional intensities just before the addition of th e calibration co cktail, I f, w ere then normaliz ed to fr actional membran e activities, Y, using equation (2). […]
as §3

[4] = Dual-channel assay, CX4/LCG channel, POPC/POPS vesicles; format: in vitro ADME; details: 12.5 µM POPC/POPS(9:1)⸧CX4/LCG-LUVs and 12.5 µM POPC/POPS(9:1)⸧CF-LUVs in 10 mM Hepes, 175 mM glucose, pH 7.5; error = SD of fit, n = 1
Description: as §4, §5, §1, §2
Vesicles w ere prep ared a s described abov e (se e en try (4) in Table S2 and entry (3) in Table S3) and eluted with freshl y prepared 10 mM Hepes, 175mM glucos e, pH 7.5 i n the size exclusion chromatograph y. For the measurements, an approp riate volume o f the liposome stock solutions was diluted to 2m L in a 10× 10 mm PS cuvette wi th 10 mM Hep es bu ffer and 175 mM glucos e at pH 7.5 to afford 12.5µM POPC ⊃CX4/LCG-LUVs and 12.5 µM POPC⊃CF-LUVs (25 µM POPC total). The cuvette was placed into a thermostatted fluorimeter sample holder at 25.0 °C and gentl y stirred at 300 rpm. The fluorescence intensity w as simultaneous l y r eco rded in the CF chann el ( λ exc = 525 nm, λ em = 545 nm) and in the LCG channel ( λ exc = 369 nm, λ em = 475 nm) with an ex citation slit width of 5 nm and an emission slit width of 5 n m during addition of 20 µL peptide stock solution of varying concentrations at 60 s and 20 µL of a calibration

Structure (SMILES) | EC50 [1] | K a, binding constant of peptide to CX4 [2] | EC50 [3] | EC50 [4] | EC50, dual-channel assay, CX4/LCG channel, POPC/POPS [4]
CC[C@H](C)[C@H](NC(=O)[C@H](CCCCN)NC(=O)[C@@H](NC(=O)[C@@H](N)CCC(N)=O)[C@@H](C)CC)C(=O)N[C@@H](Cc1c[nH]c2ccccc12)C(=O)N[C@@H](Cc1ccccc1)C(=O)N[C@@H](CCC(N)=O)C(=O)N[C@@H](CC(N)=O)C(=O)N[C@@H](CCCNC(=N)N)C(=O)N[C@@H](CCCNC(=N)N)C(=O)N[C@@H](CCSC)C(=O)N[C@@H](CCCCN)C(=O)N[C@@H](Cc1c[nH]c2ccccc12)C(=O)N[C@@H](CCCCN)C(=O)N[C@@H](CCCCN)C(=O)O (H-QIKIWFQNRRMKWKK-OH) | > 1000 µM | (9.9 ± 1.8) × 10^7 M^−1 | – | – | –
CC(C)C[C@H](NC(=O)[C@H](CC(C)C)NC(=O)[C@H](CCCNC(=N)N)NC(=O)[C@@H](N)CC(C)C)C(=O)N[C@@H](CCCNC(=N)N)C(=O)N[C@@H](Cc1c[nH]c2ccccc12)C(N)=O [LRLLRW] (H-LRLLRW-NH2) | 49 ± 6 µM | (1.3 ± 0.1) × 10^6 M^−1 | 28 ± 10 µM | 9 ± 1.6 µM | –
CC(C)[C@H](NC(=O)[C@H](CCCCN)NC(=O)[C@H](CCCNC(=N)N)NC(=O)[C@H](CCCCN)NC(=O)[C@H](CCCCN)NC(=O)[C@H](CCCCN)NC(=O)[C@@H]1CCCN1C(=O)[C@H](CCC(N)=O)NC(=O)[C@H](CO)NC(=O)[C@H](Cc1c[nH]c2ccccc12)NC(=O)[C@H](CC(=O)O)NC(=O)[C@@H](NC(=O)[C@H](Cc1c[nH]c2ccccc12)NC(=O)[C@H](Cc1c[nH]c2ccccc12)NC(=O)[C@@H](NC(=O)[C@H](CC(=O)O)NC(=O)[C@H](Cc1c[nH]c2ccccc12)NC(=O)[C@H](Cc1c[nH]c2ccccc12)NC(=O)[C@@H](NC(=O)[C@H](CC(=O)O)NC(=O)[C@@H](N)CCCCN)[C@@H](C)O)[C@@H](C)O)[C@@H](C)O)C(=O)O [Pep‐1] (H-KDTWWDTWWTDWSQPKKKRKV-OH) | > 1000 µM | (2.8 ± 0.2) × 10^6 M^−1 | 698 ± 55 µM | 5.3 ± 0.66 µM | –
CC[C@H](C)[C@H](NC(=O)[C@H](CCCCN)NC(=O)[C@H](CCCCN)NC(=O)[C@H](C)NC(=O)[C@H](CC(C)C)NC(=O)[C@H](C)NC(=O)[C@H](C)NC(=O)[C@H](CC(C)C)NC(=O)[C@H](C)NC(=O)[C@H](CCCCN)NC(=O)[C@H](CC(C)C)NC(=O)[C@H](CC(N)=O)NC(=O)[C@@H](NC(=O)[C@H](CCCCN)NC(=O)CNC(=O)[C@H](CC(C)C)NC(=O)[C@H](CC(C)C)NC(=O)[C@H](Cc1ccc(O)cc1)NC(=O)CNC(=O)[C@H](C)N)[C@@H](C)CC)C(=O)N[C@@H](CC(C)C)C(=O)O [TP10] | 0.053 ± 0.007 µM | – | 0.027 ± 0.002 µM | 0.076 ± 0.01 µM | enhanced
